Read-outs that look alike come from different tables or passages of the source.
Tests used:
Format in all cases: biochemical
MMP-2 = biological target: T1, MMP-2 (Homo sapiens, UniProt P08253); assay: Automated MMP Profiling Assay, MMP-2 fluorogenic
T1 sequence (P08253 110-660): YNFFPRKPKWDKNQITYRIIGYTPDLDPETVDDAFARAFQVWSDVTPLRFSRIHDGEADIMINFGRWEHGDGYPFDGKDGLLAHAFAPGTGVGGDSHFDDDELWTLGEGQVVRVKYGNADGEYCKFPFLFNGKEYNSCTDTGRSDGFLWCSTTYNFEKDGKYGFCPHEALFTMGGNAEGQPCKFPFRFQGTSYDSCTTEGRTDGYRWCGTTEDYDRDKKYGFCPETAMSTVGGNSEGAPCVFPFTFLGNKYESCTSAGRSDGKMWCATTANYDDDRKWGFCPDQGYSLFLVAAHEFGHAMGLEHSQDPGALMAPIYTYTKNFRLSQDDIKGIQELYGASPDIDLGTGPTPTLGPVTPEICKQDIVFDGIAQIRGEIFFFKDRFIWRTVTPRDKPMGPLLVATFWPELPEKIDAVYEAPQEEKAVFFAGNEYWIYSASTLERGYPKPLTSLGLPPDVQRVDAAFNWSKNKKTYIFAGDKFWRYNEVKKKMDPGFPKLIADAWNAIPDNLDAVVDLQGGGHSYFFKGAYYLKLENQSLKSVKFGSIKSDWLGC

MMP-3 = biological target: T2, MMP-3 (Homo sapiens, UniProt P08254); assay: Automated MMP Profiling Assay, MMP-3 fluorogenic; conditions: for IC50: 96-well automated, P218
T2 construct: Truncated Prostromelysin-257 was expressed in a soluble form in E.coli; made in house; host or cells: E. coli
Text: This assay with each invention compound was run with the three enzymes MMP-3, MMP-9 and MMP-2 in parallel as adapted for a 96-well microtitre plate using a Hamilton A® workstation.

MMP-9 = biological target: T3, MMP-9 (Homo sapiens, UniProt P14780); assay: Automated MMP Profiling Assay, MMP-9 fluorogenic; conditions: for IC50: 96-well automated, P218
T3 construct: from tissue; host or cells: human polymorphonuclear leukocytes (PMN) from whole blood (New York Blood Center), PMA-stimulated supernatant

[1] = 96-well automated, P218, read-out: MMP-2 Fluorogenic IC50 (profiling)

T3 sequence (P14780 107-707 limits assumed): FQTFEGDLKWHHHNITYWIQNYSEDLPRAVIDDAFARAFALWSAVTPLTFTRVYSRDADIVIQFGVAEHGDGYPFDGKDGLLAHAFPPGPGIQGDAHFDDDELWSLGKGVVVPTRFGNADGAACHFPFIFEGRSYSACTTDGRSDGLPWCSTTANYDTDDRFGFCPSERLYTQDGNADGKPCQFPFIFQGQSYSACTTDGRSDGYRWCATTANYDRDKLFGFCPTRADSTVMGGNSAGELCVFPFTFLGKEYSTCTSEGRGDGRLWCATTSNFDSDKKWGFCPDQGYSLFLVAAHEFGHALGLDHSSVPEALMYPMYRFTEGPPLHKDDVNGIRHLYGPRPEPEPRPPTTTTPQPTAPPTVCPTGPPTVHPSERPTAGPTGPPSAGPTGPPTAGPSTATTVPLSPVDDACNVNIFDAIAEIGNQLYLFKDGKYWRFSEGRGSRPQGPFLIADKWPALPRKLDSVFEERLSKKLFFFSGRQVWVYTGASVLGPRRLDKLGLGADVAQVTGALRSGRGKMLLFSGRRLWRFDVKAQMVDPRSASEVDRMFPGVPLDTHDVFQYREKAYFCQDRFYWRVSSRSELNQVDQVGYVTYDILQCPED
T2 sequence (P08254 100-274 limits assumed): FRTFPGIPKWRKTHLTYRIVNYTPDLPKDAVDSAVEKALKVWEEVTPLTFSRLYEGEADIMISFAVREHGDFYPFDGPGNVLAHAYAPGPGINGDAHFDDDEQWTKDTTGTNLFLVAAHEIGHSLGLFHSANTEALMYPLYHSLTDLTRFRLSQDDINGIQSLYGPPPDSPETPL

SMILES | IC50 (MMP-2; [1]) | IC50 (MMP-3) | IC50 (MMP-9) | IC50 (MMP-2) | inhibition at 5 µM (MMP-9) | inhibition at 5 µM (MMP-2; at 5 μM) | inhibition at 5 µM (MMP-3)
COc1cc(CCC(CC(=O)c2ccc(-c3ccc(Cl)cc3)cc2)C(=O)O)cc(OC)c1 (stereo not drawn) [Example 129, [1,1'-Biphenyl]-4-butanoic acid, 4'-chloro-α-[2-(3,5-dimethoxyphenyl)ethyl]-γ-oxo-] | 89 nM | 237 nM | 771 nM | – | – | – | –
O=C(c1ccc(-c2ccc(Cl)cc2)cc1)[C@H]1CCN(C(=O)NCc2ccccc2)[C@@H]1C(=O)O [Example 168, L-Proline, 3-[(4'-chloro[1,1'-biphenyl]-4-yl)carbonyl]-1-[[(phenylmethyl)amino]carbonyl]-, trans-] | 15 nM | 49 nM | 163 nM | – | – | – | –
COc1cccc2c1C(=O)N(CCC(CC(=O)c1ccc(-c3ccc(Cl)cc3)cc1)C(=O)O)C2=O (stereo not drawn) [Example 423, 2H-Isoindole-2-butanoic acid, α-[2-(4'chloro[1,1'-biphenyl]-4-yl)-2-oxoethyl]-1,3-dihydro-4-methoxy-1,3-dioxo-] | 15 nM | 19 nM | 6.1 nM | – | – | – | –
CCCCCOc1ccc(-c2ccc(C(=O)CC(CCN3C(=O)c4ccccc4C3=O)C(=O)O)cc2)cc1 (stereo not drawn) [Example 272] | 2.28 nM | 9.2 nM | 10.8 nM | – | – | – | –
COc1ccc(-c2ccc(C(=O)CC(CCc3ccccc3)C(=O)O)cc2)cc1 (stereo not drawn) [Example 154, [1,1'-Biphenyl]-4-butanoic acid, 4'-methoxy-γ-oxo-α-(2-phenylethyl)-] | 37 nM | 470 nM | 875 nM | – | – | – | –
CC(C)COC(=O)N1CC[C@H](C(=O)c2ccc(-c3ccc(Cl)cc3)cc2)[C@H]1C(=O)O [Example 172, 1,2-PYrrolidinecarboxylic acid, 3-[(4'-chloro[1,1'-biphenyl]-4-yl)carbonyl]-, 1-(2-methylpropyl) ester, (2S-trans)-] | 175 nM | 456 nM | 1930 nM | – | – | – | –
O=C(c1ccc(-c2ccc(Cl)cc2)cc1)[C@H]1CCN(C(=O)OCc2ccccc2)[C@@H]1C(=O)O [Example 166, 1,2-Pyrrolidinedicarboxylic acid, 3-[(4'-chloro[1,1'-biphenyl]-4-yl)carbonyl]-, 1-(phenylmethyl) ester, (2S-trans)-] | – | 103 nM | 381 nM | 35 nM | – | – | –
O=C(CC(CCCc1ccccc1)C(=O)O)c1ccc(-c2ccc(OCc3ccc(C(F)(F)F)cc3)cc2)cc1 (stereo not drawn) [Example 104, [1,1'-Biphenyl]-4-butanoic acid, γ-oxo-α-(3-phenylpropyl)-4'-[[4-(trifluoromethyl)phenyl]methoxy]-] | 63 nM | 125 nM | – | – | 18% | – | –
O=C(O)[C@H]1[C@H](CSc2nc3ccccc3s2)CC[C@@H]1C(=O)c1ccc(-c2ccc(Cl)cc2)cc1 (relative stereo) [Example 375, Cyclopentanecarboxylic acid, 2-[(2-benzothiazolylthio)methyl]-5-[(4'-chloro[1,1'-biphenyl]-4-yl)carbonyl]-, (1α,2β,5β)-] | 68 nM | 116 nM | 146 nM | – | – | – | –
CCCCCOc1ccc(-c2ccc(C(=O)[C@H]3CC[C@@H](Sc4ccccc4)[C@@H]3C(=O)O)cc2)cc1 (single isomer, unassigned) [Example 320, Cyclopentanecarboxylic acid, 2-[[4'-(pentyloxy)[1,1'-biphenyl]-4-yl]carbonyl]-5-(phenylthio)-, (1α,2β,5β)-(-)-] | – | – | – | – | 6% | 24% | 6%
CCCCCOc1ccc(-c2ccc(C(=O)[C@H]3CC[C@@H](Cc4ccccc4)[C@@H]3C(=O)O)cc2)cc1 [Example 324, Cyclopentanecarboxylic acid, 2-[[4'-(pentyloxy)[1,1'-biphenyl]-4-yl]carbonyl]-5-(phenylmethyl)-, [1S-(1α,2β,5β)]-] | 8.1 nM | 46 nM | 343 nM | – | – | – | –
O=C(CC(CCSc1ccccc1)C(=O)O)c1ccc(-c2ccc(Cl)cc2)cc1 (stereo not drawn) [Example 426, [1,1'-Biphenyl]-4-butanoic acid, 4'-chloro-γ-oxo-α-[2-(phenylthio)ethyl]-] | 35 nM | 161 nM | 417 nM | – | – | – | –
O=C(C[C@@H](CCCc1ccccc1)C(=O)O)c1ccc(-c2ccc(OCc3ccccc3)cc2)cc1 [Example 101, 4-[4-(4-benzyloxyphenyl)phenyl]-4-oxo-2R-(3-phenylpropyl)butanoic acid] | 3320 nM | – | – | – | 10% | – | 45%
CCCCC(=O)Nc1ccc(-c2ccc(C(=O)CC(CCc3ccccc3)C(=O)O)cc2)cc1 (stereo not drawn) [Example 140, [1,1'-Biphenyl]-4-butanoic acid, γ-oxo-4'-[(1-oxopentyl)amino]-α-(2-phenylethyl)-] | 242 nM | 1030 nM | > 1250 nM | – | – | – | –
O=C(CC(CCCc1ccccc1)C(=O)O)c1ccc(-c2ccc(CCc3ccccc3)cc2)cc1 (stereo not drawn) [Example 359, [1,1'-Biphenyl]-4-butanoic acid, 4'-γ-oxo-4'-(2-phenylethyl)-α-(3-phenylpropyl)-] | 51 nM | 83 nM | – | – | 16% | – | –
COCOC[C@@H]1CC[C@H](C(=O)c2ccc(-c3ccc(Cl)cc3)cc2)[C@H]1C(=O)O (relative stereo) [Example 364] | 40 nM | 46 nM | 180 nM | – | – | – | –
CCCC/C=C\c1ccc(-c2ccc(C(=O)CC(CCCc3ccccc3)C(=O)O)cc2)cc1 (stereo not drawn) [Example 356, [1,1'-Biphenyl]-4-butanoic acid, 4'-(1-hexenyl)-γ-oxo-α-(3-phenylpropyl)-, (Z)-] | 188 nM | – | – | – | 14% | – | 45%
O=C(CC(CN1C(=O)c2ccccc2C1=O)C(=O)O)c1ccc(-c2ccc(Cl)cc2)cc1 (stereo not drawn) [Example 276, 2H-Isoindole-2-propanoic acid, α-[2-(4'-chloro[1,1'-biphenyl]-4-yl)-2-oxoethyl]-1,3-dihydro-1,3-dioxo-] | 39 nM | 262 nM | 275 nM | – | – | – | –
O=C(O)[C@@H]1[C@@H](C(=O)c2ccc(-c3ccc(Cl)cc3)cc2)CC[C@H]1SCc1ccccc1 (relative stereo) [Example 441, Cyclopentanecarboxylic acid, 2-[(4'-chloro[1,1'-biphenyl]-4-yl)carbonyl]-5-[(phenylmethyl)thio]-, (1α,2β,5β)-] | 27 nM | 38 nM | 149 nM | – | – | – | –
COC(=O)c1ccccc1SC[C@@H]1CC[C@H](C(=O)c2ccc(-c3ccc(Cl)cc3)cc2)[C@H]1C(=O)O (relative stereo) [Example 376, Benzoic acid, 2-[[[2-carboxy-3-[(4'-chloro[1,1'-biphenyl]-4-yl)carbonyl]cyclopentyl]methyl]thio]-, 1-methyl ester, (1α,2β,3α)0] | 34 nM | 46 nM | 95 nM | – | – | – | –
CCOc1ccc(-c2ccc(C(=O)CC(CCN3C(=O)CCC3=O)C(=O)O)cc2)cc1 (stereo not drawn) [Example 412, 1-Pyrrolidinebutanoic acid, α-[2-(4'-ethoxy[1,1'-biphenyl]-4-yl)-2-oxoethyl]-2,5-dioxo-] | 10 nM | 84 nM | 41 nM | – | – | – | –
C#Cc1ccc(-c2ccc(C(=O)CC(CCCc3ccccc3)C(=O)O)cc2)cc1 (stereo not drawn) [Example 351, [1,1'-Biphenyl]-4-butanoic acid, 4'-ethynyl-γ-oxo-α-(3-phenylpropyl)-] | 50 nM | 107 nM | 151 nM | – | – | – | –
CC(=O)Oc1ccc2c(c1)C(=O)N(CCC(CC(=O)c1ccc(-c3ccc(Cl)cc3)cc1)C(=O)O)C2=O (stereo not drawn) [Example 425, 2H-Isoindole-2-butanoic acid, 5-(acetyloxy)-α-[2-(4'-chloro[1,1'-biphenyl]-4-7l)2-oxoetyl]-1,3-dihydro-1,3-dioxo-] | 14 nM | 3.8 nM | 1.2 nM | – | – | – | –
O=C(CC(CCN1C(=O)c2ccc(O)cc2C1=O)C(=O)O)c1ccc(-c2ccc(Cl)cc2)cc1 (stereo not drawn) [Example 420, 2H-Isoindole-2-butanoic acid, α-[2-(4'chloro[1,1'-biphenyl]-4-yl)-2-oxoethyl]-1,3-dihydro-5-hydroxy-1,3-dioxo-] | 5.1 nM | 14 nM | 1.7 nM | – | – | – | –
O=C(CC(CCCc1ccccc1)C(=O)O)c1ccc(-c2ccc(OCc3cccc(Cl)c3)cc2)cc1 (stereo not drawn) [Example 106, [1,1'-Biphenyl]-4-butanoic acid, 4'-[(3-chlorophenyl)methoxy]-γ-oxo-α-(3-phenylpropyl)-] | 43 nM | 57 nM | 622 nM | – | – | – | –
O=C(CC(CCc1ccccc1)C(=O)O)c1ccc(-c2ccc(OCc3ccccc3)cc2)cc1 (stereo not drawn) [Example 161, [1,1'-Biphenyl]-4-butanoic acid, γ-oxo-α-(2-phenylethyl)-4'-(phenylmethoxy)-] | 38 nM | 46 nM | 1560 nM | – | – | – | –
O=C(O)[C@@H]1CN(Cc2ccccc2)C[C@H]1C(=O)c1ccc(-c2ccc(Cl)cc2)cc1 (relative stereo) [Example 175, 3-Pyrrolidinecarboxylic acid, 4-[(4'-chloro[1,1'-biphenyl]-4-yl)carbonyl]-1-(phenylmethyl)-, trans-] | 5000 nM | – | – | – | 6% | – | 28%

— patent US5789434A, “Derivatives of substituted 4-biarylbutyric acid as matrix metalloprotease inhibitors” (priority 1995, dated 1998)
